Like-named read-outs stand apart in the source and are kept apart here.
Legend:
[1] = system: PaCa2 (pancreatic) cancer cell line; experiment: MTT antiproliferation, PaCa-2; assay type: cell-based, human; conditions: for IC50: Homo sapiens, PaCa-2, 72 h, read-out: IC50 (µM) ± SEM PaCa-2; for SI (selectivity index) PaCa-2: IC50 of RPE1/IC50 of cancer cell line
[2] = system: A431 (skin squamous) cancer cell line; experiment: MTT antiproliferation, A431; assay type: cell-based, human; conditions: for IC50: Homo sapiens; for SI (selectivity index) A431: IC50 of RPE1/IC50 of cancer cell line
Procedure, shortened: (§1)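 Cells seeded 30000/well for 24 h, then treated for 72 h with triplicate wells per dose; 0.5% DMSO as negative control. MTT (2.5 mg ml^-1) added for 4 h at 37 °C, crystals dissolved in 10% SDS overnight. Surviving fraction = O.D. treated / O.D. control.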

[3] = system: SARS-CoV-2 (hCoV-19/Egypt/NRC-03/2020); experiment: Vero-E6 cell viral infection model, anti-SARS-CoV-2 IC50 (CPE, crystal violet); assay type: cell-based; conditions: for IC50: Severe acute respiratory syndrome coronavirus 2, Vero C1008; for SI = CC50/IC50: Vero-E6, SARS-CoV-2
[4] = system: MCF7 (breast cancer cell line); experiment: PI-flow cytometry cell cycle studies; assay type: cell-based, human; conditions: MCF7, PI-FC, compound at its MTT IC50
Method: Flow cytometry (FC) is a reliable technique for evaluation of cancer cell progression[72]–[74]. Illumination of the cells by lasers can identify the stained propidium iodide (PI) DNA cell content in stoichiometric population value. This is a commonly accessible methodology for studying cancer cell antiproliferation and cell cycle phase suppression.
Cell cycle studies for the most promising agents synthesized (6l and 6m) against MCF7 (breast) cancer call were conducted by the standard technique. The Cells were suspended in DMEM medium in addition to 1% antibiotic–antimycotic mixture (10000 μg ml^-1 potassium penicillin, 10000 μg ml^-1 streptomycin sulfate and 25 μg ml^-1 amphotericin B), 10% fetal bovine serum and 1% L-glutamine at 37 °C, under 5% CO2 and 95% humidity. Cells were seeded at concentration of 30000 cells per well in fresh complete growth medium in 96-well tissue culture microtiter plates for 24 h. Media was aspirated, fresh complete medium was added and cells were incubated with the IC50 concentration of the tested compounds which determined previously in the MTT antiproliferation testing assay. The ab139418-Propidium Iodide Flow Cytometry kit for cycle analysis (reader: BD FACS Calibur)^8 was used for cell cycle analysis. The Annexin V-FITC Apoptosis Detection Kit (Catalog#K101-25) was utilized for apoptosis studies.^9 All the studies were conducted according to the manufacturer’s instruction.

BChE = BChE (Homo sapiens, UniProt P06276); experiment: BChE inhibition (DTNB, butyrylthiocholine iodide)
Method: Butyrylthiocholine iodide and acetylthiocholine were utilized as substrates in BChE and AChE assays, respectively, where DTNB was served as indicator. All compounds were dissolved in MeOH. […] Blank assays were performed by replacing the enzyme (20 μL) with buffer and their absorbances were recorded for correction of the spontaneous lysis of the indicator or inherent color of the inhibitor.
% Inhibition = [1−(corrected A/corrected B)] * 100

[5] = system: HCT116 (colon) cancer cell line; experiment: MTT antiproliferation, HCT116; assay type: cell-based, human; conditions: for IC50: Homo sapiens, HCT-116, 72 h, read-out: IC50 (µM) ± SEM HCT116; for SI (selectivity index) HCT116: IC50 of RPE1/IC50 of cancer cell line
Procedure, shortened: as §1

[6] = MTT cytotoxicity assay (CC50); assay type: cell-based; conditions: African green monkey, VERO-E6 cells
Procedure, shortened: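 VERO-E6 cells seeded at 3 x 10^5 cell/ml, grown 24 h at 37 °C, then exposed to compounds in triplicate for 24 h. Viability by MTT (4 h, 37 °C), formazan in acidified isopropanol read at 570 nm; CC50 by nonlinear regression versus untreated cells.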

AChE = AChE (Homo sapiens, UniProt P22303); experiment: AChE inhibition (DTNB, acetylthiocholine); assay type: biochemical; conditions: for IC50: read-out: AChE (IC50, μM) ± SD
Method: All compounds were dissolved in MeOH.

[7] = system: MCF7 (breast) cancer cell line; experiment: MTT antiproliferation, MCF7; assay type: cell-based, human; conditions: for IC50: Homo sapiens, MCF7, 72 h, read-out: IC50 (µM) ± SEM MCF7; for SI (selectivity index) MCF7: IC50 of RPE1/IC50 of cancer cell line
Procedure, shortened: as §1

[8] = A-431, 72 h, read-out: IC50 (µM) ± SEM A431
[9] = A-431, read-out: Observed log(IC50, μM) (A431) (converted)
[10] = Vero-E6, 72 h, reduction of virus-induced CPE, read-out: IC50 (µM) SARS-CoV-2
[11] = log of observed IC50 in μM, read-out: Observed log(IC50, μM) (SARS-CoV-2) (converted)

Chain of AChE (P22303 32-614): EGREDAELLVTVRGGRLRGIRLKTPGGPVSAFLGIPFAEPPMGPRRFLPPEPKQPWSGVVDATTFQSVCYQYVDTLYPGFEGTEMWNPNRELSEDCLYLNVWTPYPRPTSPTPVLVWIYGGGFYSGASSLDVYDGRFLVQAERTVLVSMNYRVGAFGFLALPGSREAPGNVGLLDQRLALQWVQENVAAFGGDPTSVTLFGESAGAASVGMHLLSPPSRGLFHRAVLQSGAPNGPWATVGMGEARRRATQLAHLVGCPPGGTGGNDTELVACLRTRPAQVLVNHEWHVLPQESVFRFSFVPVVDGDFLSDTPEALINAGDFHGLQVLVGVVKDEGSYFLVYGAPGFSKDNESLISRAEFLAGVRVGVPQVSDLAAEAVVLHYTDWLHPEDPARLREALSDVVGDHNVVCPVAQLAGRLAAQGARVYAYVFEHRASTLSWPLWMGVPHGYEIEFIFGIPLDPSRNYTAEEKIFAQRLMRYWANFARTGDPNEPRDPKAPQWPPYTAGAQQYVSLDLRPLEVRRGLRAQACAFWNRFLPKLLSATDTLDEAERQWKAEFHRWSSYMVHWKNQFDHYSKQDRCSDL
Chain of BChE (P06276 29-602, species assumed): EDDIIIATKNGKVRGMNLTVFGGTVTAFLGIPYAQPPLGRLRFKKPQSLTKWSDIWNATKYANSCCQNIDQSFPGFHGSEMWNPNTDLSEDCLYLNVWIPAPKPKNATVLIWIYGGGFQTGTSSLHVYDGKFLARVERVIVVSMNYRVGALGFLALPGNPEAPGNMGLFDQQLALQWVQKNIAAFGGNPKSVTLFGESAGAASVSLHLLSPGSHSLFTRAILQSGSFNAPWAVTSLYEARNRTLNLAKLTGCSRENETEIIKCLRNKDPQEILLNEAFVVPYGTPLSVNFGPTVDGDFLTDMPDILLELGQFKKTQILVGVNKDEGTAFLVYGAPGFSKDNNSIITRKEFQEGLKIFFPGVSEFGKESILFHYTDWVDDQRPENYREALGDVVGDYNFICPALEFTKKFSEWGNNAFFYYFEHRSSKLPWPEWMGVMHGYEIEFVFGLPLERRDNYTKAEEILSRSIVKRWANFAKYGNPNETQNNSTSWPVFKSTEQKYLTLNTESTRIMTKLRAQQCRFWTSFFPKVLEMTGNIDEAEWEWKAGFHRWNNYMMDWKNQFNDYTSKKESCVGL

CCS(=O)(=O)N1C/C(=C\c2ccc(Cl)cc2)C(=O)C2(C1)C(c1ccc(Cl)cc1)CN(C)C21C(=O)Nc2ccc(Cl)cc21 (stereo not drawn) [Compound 6l, (E)-5-Chloro-5″-(4-chlorobenzylidene)-4′-(4-chlorophenyl)-1″-(ethylsulfonyl)-1′-methyldispiro[indoline-3,2′-pyrrolidine-3′,3″-piperidine]-2,4″-dione]
IC50 [1]: 11.9 ± 0.83 µM | SI (selectivity index) PaCa-2 [1]: > 4.2 | IC50 [2, 8]: 3.69 ± 0.33 µM | IC50 [2, 9]: 3.69 µM | SI (selectivity index) A431 [2]: > 13.5 | IC50 [3, 10]: 31.4 µM | IC50 [3, 11]: 31.4 µM | SI = CC50/IC50 [3]: 15.1 | % DNA content G0–G1 [4]: 66.13% | % DNA content G2/M [4]: 10.13% | % DNA content S [4]: 23.74% | IC50 (BChE): 11.8 ± 0.95 µM | IC50 [5]: 4.11 ± 0.41 µM | SI (selectivity index) HCT116 [5]: > 12.2 | CC50 at 24 h [6]: 476 µM | SI = IC50 (AChE)/IC50 (BChE) (AChE): 2.0 | IC50 (AChE): 23.6 ± 7.73 µM | IC50 [7]: 3.99 ± 0.31 µM | SI (selectivity index) MCF7 [7]: > 12.5

CN1CC(c2ccc(Br)cc2)C2(CN(S(C)(=O)=O)C/C(=C\c3ccc(Br)cc3)C2=O)C12C(=O)Nc1ccccc12 (stereo not drawn) [Compound 6m, (E)-5″-(4-Bromobenzylidene)-4′-(4-bromophenyl)-1′-methyl-1″-(methylsulfonyl)dispiro[indoline-3,2′-pyrrolidine-3′,3″-piperidine]-2,4″-dione]
IC50 [1]: 12.5 ± 0.67 µM | SI (selectivity index) PaCa-2 [1]: 1.2 | IC50 [2, 8]: 2.43 ± 0.18 µM | IC50 [2, 9]: 2.43 µM | SI (selectivity index) A431 [2]: 6.1 | efficacy, times more than the standard reference 5-fluorouracil (A431) ([2]; ratio of IC50 values): about 9.6 times | IC50 [3, 10]: 8.92 µM | IC50 [3, 11]: 8.92 µM | SI = CC50/IC50 [3]: 17.9 | % DNA content G0–G1 [4]: 62.51% | % DNA content G2/M [4]: 2.38% | % DNA content S [4]: 35.11% | IC50 (BChE): 27.9 ± 2.96 µM | IC50 [5]: 3.24 ± 0.27 µM | SI (selectivity index) HCT116 [5]: 4.6 | CC50 at 24 h [6]: 160 µM | SI = IC50 (AChE)/IC50 (BChE) (AChE): 1.1 | IC50 (AChE): 29.7 ± 4.05 µM | IC50 [7]: 3.6 ± 0.19 µM | SI (selectivity index) MCF7 [7]: 4.1

Source: publication PMC9380671, “Development of spiro-3-indolin-2-one containing compounds of antiproliferative and anti-SARS-CoV-2 properties” (Scientific Reports, 2022)
